We go through 12 compounds from patent publication US10736883B2, “Triazole furan compounds as agonists of the APJ receptor” (AMGEN INC., priority 2016, dated 2020).

The target in the assay is APJ receptor (Homo sapiens (Human), UniProt P35414). In words: [35S]GTPγS binding assay on membranes from CHO cells stably expressing human APJ receptor. Particulars: membranes of CHO cells stably expressing human APJ receptor, means of several independent experiments, read-out: Activity hAPJ SPA EC50 IP. Type of assay: biochemical. The essentials: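 EC50 values were obtained by non-linear regression of [35S]GTPγS (0.2 nM) binding after 90 min at RT, with nonspecific binding defined by 100 μM GTPγS. Reactions used human APJ–expressing CHO cell membranes on WGA PS beads in HEPES pH 7.5 buffer with 5 mM MgCl2, 200 mM NaCl, 3 μM GDP and 0.1% BSA.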
APJ receptor, sequence (P35414 whole entry): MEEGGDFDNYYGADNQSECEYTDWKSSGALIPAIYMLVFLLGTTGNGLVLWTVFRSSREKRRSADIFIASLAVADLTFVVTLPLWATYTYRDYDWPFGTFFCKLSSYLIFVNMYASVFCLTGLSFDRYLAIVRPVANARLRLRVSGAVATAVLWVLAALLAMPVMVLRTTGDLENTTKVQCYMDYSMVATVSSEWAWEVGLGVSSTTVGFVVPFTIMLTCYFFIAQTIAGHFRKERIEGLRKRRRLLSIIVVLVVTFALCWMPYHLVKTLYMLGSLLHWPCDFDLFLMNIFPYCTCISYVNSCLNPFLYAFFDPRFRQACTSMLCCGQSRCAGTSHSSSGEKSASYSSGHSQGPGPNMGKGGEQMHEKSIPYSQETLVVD
As a reminder, the EC50 is the concentration that produces a half-maximal response. On to `COc1cccc(OC)c1-n1c(NS(=O)(=O)[C@H](C)Cc2ncc(F)cn2)nnc1-c1cc(C)c(C)o1` (single isomer, unassigned) [Example 89.0, (R)—N-(4-(2,6-Dimethoxyphenyl)-5-(4,5-dimethylfuran-2-yl)-4H-1,2,4-triazol-3-yl)-1-(5-fluoropyrimidin-2-yl)propane-2-sulfonamide or (S)—N-(4-(2,6-dimethoxyphenyl)-5-(4,5-dimethylfuran-2-yl)-4H-1,2,4-triazol-3-yl)-1-(5-fluoropyrimidin-2-yl)propane-2-sulfonamide], for which the EC50 is 1.9 nM.
The value for `COc1cccc(OC)c1-n1c(NS(=O)(=O)[C@H](C)Cc2ncc(F)cn2)nnc1-c1cc(C)c(C)o1` (single isomer, unassigned) [Example 91.0, (R)—N-(4-(2,6-Dimethoxyphenyl)-5-(4,5-dimethylfuran-2-yl)-4H-1,2,4-triazol-3-yl)-1-(5-fluoropyrimidin-2-yl)propane-2-sulfonamide or (S)—N-(4-(2,6-dimethoxyphenyl)-5-(4,5-dimethylfuran-2-yl)-4H-1,2,4-triazol-3-yl)-1-(5-fluoropyrimidin-2-yl)propane-2-sulfonamide] was 4.2 nM; that for `COc1cccc(OC)c1-n1c(NS(=O)(=O)[C@H](C)[C@@H](O)c2ncc(F)cn2)nnc1-c1ccc(C)o1` (single isomer, unassigned) [Example 93.0, (1R,2S)—N-(4-(2,6-Dimethoxyphenyl)-5-(5-methyl-2-furanyl)-4H-1,2,4-triazol-3-yl)-1-(5-fluoro-2-pyrimidinyl)-1-hydroxy-2-propanesulfonamide or (1S,2R)—N-(4-(2,6-dimethoxyphenyl)-5-(5-methyl-2-furanyl)-4H-1,2,4-triazol-3-yl)-1-(5-fluoro-2-pyrimidinyl)-1-hydroxy-2-propanesulfonamide] was 0.14 nM; that for `CCc1ccc(-c2nnc(NS(=O)(=O)[C@@H](C)Cc3ncc(F)cn3)n2-c2c(OC)cccc2OC)o1` (single isomer, unassigned) [Example 97.0, (2S)—N-(4-(2,6-Dimethoxyphenyl)-5-(5-ethyl-2-furanyl)-4H-1,2,4-triazol-3-yl)-1-(5-fluoro-2-pyrimidinyl)-2-propanesulfonamide or (2R)—N-(4-(2,6-dimethoxyphenyl)-5-(5-ethyl-2-furanyl)-4H-1,2,4-triazol-3-yl)-1-(5-fluoro-2-pyrimidinyl)-2-propanesulfonamide] was 0.4 nM.
The value for `CCc1ccc(-c2nnc(NS(=O)(=O)[C@@H](C)Cc3ncc(F)cn3)n2-c2c(OC)cccc2OC)o1` (single isomer, unassigned) [Example 99.0, (2S)—N-(4-(2,6-Dimethoxyphenyl)-5-(5-ethyl-2-furanyl)-4H-1,2,4-triazol-3-yl)-1-(5-fluoro-2-pyrimidinyl)-2-propanesulfonamide or (2R)—N-(4-(2,6-dimethoxyphenyl)-5-(5-ethyl-2-furanyl)-4H-1,2,4-triazol-3-yl)-1-(5-fluoro-2-pyrimidinyl)-2-propanesulfonamide] was 1 nM; that for `COc1cccc(OC)c1-n1c(NS(=O)(=O)[C@@H]2CCC[C@H]2c2ncc(F)cn2)nnc1-c1ccc(C)o1` (single isomer, unassigned) [Example 101.0, (1R,2S)—N-(4-(2,6-Dimethoxyphenyl)-5-(5-methyl-2-furanyl)-4H-1,2,4-triazol-3-yl)-2-(5-fluoro-2-pyrimidinyl)cyclopentanesulfonamide or (1S,2R)—N-(4-(2,6-dimethoxyphenyl)-5-(5-methyl-2-furanyl)-4H-1,2,4-triazol-3-yl)-2-(5-fluoro-2-pyrimidinyl)cyclopentanesulfonamide] was 2 nM.
Regarding `COc1cccc(OC)c1-n1c(NS(=O)(=O)[C@@H]2CCC[C@H]2c2ncc(F)cn2)nnc1-c1ccco1` (single isomer, unassigned) [Example 104.0, (1R,2S)—N-(4-(2,6-Dimethoxyphenyl)-5-(2-furanyl)-4H-1,2,4-triazol-3-yl)-2-(5-fluoro-2-pyrimidinyl)cyclopentanesulfonamide or (1S,2R)—N-(4-(2,6-dimethoxyphenyl)-5-(2-furanyl)-4H-1,2,4-triazol-3-yl)-2-(5-fluoro-2-pyrimidinyl)cyclopentanesulfonamide], the EC50 was 22 nM.
As for `COc1cccc(OC)c1-n1c(NS(=O)(=O)[C@@H](C)[C@H](OC)c2ncc(F)cn2)nnc1-c1ccc(C)o1` (single isomer, unassigned) [Example 116.0, (1R,2S)-N-(4-(2,6-dimethoxyphenyl)-5-(5-methylfuran-2-yl)-4H-1,2,4-triazol-3-yl)-1-(5-fluoropyrimidin-2-yl)-1-methoxypropane-2-sulfonamide or (1S,2R)-N-(4-(2,6-dimethoxyphenyl)-5-(5-methylfuran-2-yl)-4H-1,2,4-triazol-3-yl)-1-(5-fluoropyrimidin-2-yl)-1-methoxypropane-2-sulfonamide], the figure is 0.056 nM; as for `CCO[C@@H](c1ncc(C)cn1)[C@H](C)S(=O)(=O)Nc1nnc(-c2ccc(C)o2)n1-c1c(OC)cccc1OC` (single isomer, unassigned) [Example 117.0, (1S,2S)-N-(4-(2,6-dimethoxyphenyl)-5-(5-methylfuran-2-yl)-4H-1,2,4-triazol-3-yl)-1-ethoxy-1-(5-methylpyrimidin-2-yl)propane-2-sulfonamide or (1R,2R)-N-(4-(2,6-dimethoxyphenyl)-5-(5-methylfuran-2-yl)-4H-1,2,4-triazol-3-yl)-1-ethoxy-1-(5-methylpyrimidin-2-yl)propane-2-sulfonamide], 0.061 nM; as for `CCO[C@H](c1ncc(C)cn1)[C@H](C)S(=O)(=O)Nc1nnc(-c2ccc(C)o2)n1-c1c(OC)cccc1OC` (single isomer, unassigned) [Example 118.0], 0.084 nM.
The value for `COc1cccc(OC)c1-n1c(NS(=O)(=O)[C@H](C)[C@H](OC)c2ncc(F)cn2)nnc1-c1ccc(C)o1` (single isomer, unassigned) [Example 122.0, (1R,2R)-N-(4-(2,6-dimethoxyphenyl)-5-(5-methylfuran-2-yl)-4H-1,2,4-triazol-3-yl)-1-(5-fluoropyrimidin-2-yl)-1-methoxypropane-2-sulfonamide or (1S,2S)-N-(4-(2,6-dimethoxyphenyl)-5-(5-methylfuran-2-yl)-4H-1,2,4-triazol-3-yl)-1-(5-fluoropyrimidin-2-yl)-1-methoxypropane-2-sulfonamide] was 0.22 nM.
Regarding `COc1cccc(OC)c1-n1c(NS(=O)(=O)C[C@@H](C)c2ncc(F)cn2)nnc1-c1ccc(C)o1` (single isomer, unassigned) [Example 123.0, (S)—N-(4-(2,6-Dimethoxyphenyl)-5-(5-methylfuran-2-yl)-4H-1,2,4-triazol-3-yl)-2-(5-fluoropyrimidin-2-yl)propane-1-sulfonamide or (R)—N-(4-(2,6-dimethoxyphenyl)-5-(5-methylfuran-2-yl)-4H-1,2,4-triazol-3-yl)-2-(5-fluoropyrimidin-2-yl)propane-1-sulfonamide], the EC50 was 0.24 nM.
